Assay results taken from publication PMC5581232 (European journal of medicinal chemistry, 2017).
Like-named read-outs stand apart in the source and are kept apart here.

How the values were obtained:
HBV = experiment: Anti-HBV activity: HBV DNA replication; type: cell-based, Hepatitis B virus; conditions: for Anti-HBV activity (in words): HepAD38 cells
[1] = tested on: HBeAg secretion (HBV cccDNA formation); experiment: HBeAg reporter cell-based assay; design: species or system Hepatitis B virus; conditions: for Effect on secretion of HBeAg (in words): 3TC and ETV at 10 μM
HBV Cp149 = HBV Cp149 (Hepatitis B virus genotype D subtype ayw, UniProt P03146); experiment: HBV Cp149 capsid formation by negative-stain electron microscopy; type: biochemical; conditions: 20 μM, 1 hr pre-incubation, assembly induced with NaCl overnight
Sequence of HBV Cp149 (P03146 1-149): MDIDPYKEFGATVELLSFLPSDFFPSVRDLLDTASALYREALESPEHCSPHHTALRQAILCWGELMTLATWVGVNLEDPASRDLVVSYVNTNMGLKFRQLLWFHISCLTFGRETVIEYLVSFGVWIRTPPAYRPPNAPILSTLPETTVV

[2] = Hepatitis B virus, HePAD38, read-out: HBeAg Secretion EC90, HepAD38 cells, ELISA
[3] = read-out: HBeAg Secretion EC90, HepAD38 cells, ELISA

Compound | Effect on secretion of HBeAg (in words) ([1]; HepAD38 cells) | EC90 [1, 2] [µM] | EC90 [1, 3] [µM] | Effect on HBV Cp149 capsid formation (morphology, negative-stain TEM) (HBV Cp149) | Anti-HBV activity (in words) (HBV) | other results
Nc1ccn([C@@H]2CS[C@H](CO)O2)c(=O)n1 [Compound 3TC, lamivudine, reference compound] | no effect |  |  |  |  | EC50 (HBV; Hepatitis B virus, HePAD38, read-out: HBV DNA – Extracellular EC50): 0.04 ± 0.03 µM
O=C(Nc1ccc(F)c(F)c1)c1cc(S(=O)(=O)NC2CCCC2)ccc1F [Compound 4a, 5-(N-Cyclopentylsulfamoyl)-N-(3,4-difluorophenyl)-2-fluorobenzamide] |  | 3 to 4 | 4.6 ± 2 | form greater numbers of disfigured circular assemblies |  | 
O=C(Nc1ccc(F)c(F)c1)c1cc(S(=O)(=O)N2CC(F)(F)C2)ccc1F [Compound 4f, 5-((3,3-Difluoroazetidin-1-yl)sulfonyl)-N-(3,4-difluorophenyl)-2-fluorobenzamide] |  | 3 to 4 | 3.2 ± 0.01 | a large number of incomplete, but typically spherical capsids aggregated into clusters |  | 
O=C(Nc1cc(S(=O)(=O)NC2CCCC2)ccc1F)c1ccc(F)c(F)c1 [Compound 16, N-(5-(N-Cyclopentylsulfamoyl)-2-fluorophenyl)-3,4-difluorobenzamide] |  |  |  |  | complete loss of activity | 
O=C(NC1(c2ccc(F)c(F)c2)CC1)c1cc(S(=O)(=O)NC2CCCC2)ccc1F [Compound 19, 5-(N-Cyclopentylsulfamoyl)-N-(1-(3,4-difluorophenyl)cyclopropyl)-2-fluorobenzamide] |  |  |  |  | complete loss of activity | 
CC(C)(NC(=O)c1cccc(S(=O)(=O)NC2CCCC2)c1)c1ccc(F)c(F)c1 [Compound 21, 3-(N-Cyclopentylsulfamoyl)-N-(2-(3,4-difluorophenyl)propan-2-yl)benzamide] |  |  |  | properly formed HBV Cp149 capsids | complete loss of activity | 
C=C1[C@H](CO)[C@@H](O)C[C@@H]1n1cnc2c(=O)[nH]c(N)nc21.O [ETV, entecavir] | no effect |  |  |  |  | 
CCOC(=O)C1=C(CN2CCOCC2)NC(c2nccs2)=NC1c1ccc(F)cc1Br (stereo not shown) [GLS-4] | reduced secretion of HBeAg | 2 | 1.9 ± 0.04 |  |  | 
